“Also recorded” adds a separate entry of the source. Where two headings read alike, the source gives them in different places. Each block holds one molecule with its values, some of them ahead of it.
Experiments:
U937 cells [1] = test: DNA fragmentation in whole cells (release of 3H-labeled DNA fragments, 4 h); type: cell-based, human; details: for IC50: Homo sapiens, U-937, 4 h
Method: (§1) DNA fragmentation in whole cells or normal nuclei isolated from U937 or MCF-7 cells was assayed by release of (3H)thymidine-labeled DNA fragments as described in detail previously (Wright et al. (1994) J. Exp. Med. 180, 2113-2123). DNA fragmentation induced by rADF treatment of isolated nuclei for four h was analyzed by agarose electrophoresis as described in detail previously (Wright et al. (1994) supra). In four h assays using isolated nuclei, the buffer was supplemented with an ATP regenerating system (2 mM ATP, 10 mM phosphocreatine, and 50 μg/ml creatine kinase).

U9-TR = test: as above; type: cell-based, human; details: Homo sapiens; U9-TR; 4 hr; read-out: IC50 Value (minimal concentration to cause 50% DNA fragmentation)
Method: as §1
(§2) Another mechanism whereby cancer cells may resist apoptosis is through overexpression of heat shock (HS) proteins which have been found at high levels in most tumor cell biopsies (Jaattela, et al., 1999, Exp Cell Res 248:30-43). […] We have studied the mechanisms of apoptosis resistance using several variants derived from the U937 cell line. Variants generated by prolonged growth in the presence of TNF (U9-TR) or by nutritional depletion of intracellular NAD content (U9-NAD-) have been described in the literature previously (Wright, et al., 1992, Cancer Immunol Immunother 34:399-406; Wright, et al., 1996b, J. Exp. Med. 183: 463-477). Both of these variants were resistant to apoptosis induced by diverse agents, such as chemotherapeutic drugs, UV light, and TNF.

U9-NAD - = test: as above; type: cell-based; details: Homo sapiens, read-out: IC50 Value (minimal concentration to cause 50% DNA fragmentation)
Method: as §1, §2

HL-60 neo = test: as above; type: cell-based; details: Homo sapiens
HL-60 Bcl-2 = test: as above; type: cell-based; details: Homo sapiens
U937 cells [2] = test: Viability by trypan blue exclusion after 4 h treatment; type: cell-based, human; details: for IC50: Homo sapiens, U-937, trypan blue, 4 h
MES-SA (parental) = test: 48 h MTT dye reduction assay; type: cell-based; details: Homo sapiens
Excerpt: (§3) One of the most frequently reported alterations associated with multidrug resistance is increased expression of the 170 kDa membrane protein called P-glycoprotein encoded by the MDR1 gene. It functions as an energy-dependent drug efflux pump that reduces intracellular drug accumulation, thereby causing resistance to many structurally unrelated drugs (Roninson, et al., 1986, Proc Natl Acad Sci 83:4538-4542). To determine if MDR1 overexpressing cells were sensitive to rADF, the inventors tested the parental drug-sensitive uterine sarcoma, MES-SA, compared to a variant selected by culturing in doxorubicin, MES-SA/Dx5, described previously (Chen et al., 1997).

MES-SA/Dx5 (MDR1 high) = test: cells; details: 48 h, read-out: IC50 Values
Excerpt: as §3

Hep3B = test: 48 h MTT dye reduction assay; type: cell-based; details: Homo sapiens
Excerpt: (§4) The cytotoxic activity of rADF-Ant was compared to several chemotherapeutic drugs on a panel of three HCC cell lines.
(§5) Without limiting the invention to any particular mechanism, another possible mechanism of resistance is expression of the multidrug resistance associated protein (MRP). This protein is thought to exert a function similar to the p-glycoprotein, and is expressed at high levels in the HepG2 and SK Hep-1 cell lines (Takeuchi, et al., 1999, J Gastroenterol 34:351-358). Increased expression of thioredoxin, which functions as a cellular defense mechanism against oxidative stress, may also protect HCC's from some chemotherapeutic agents (Kawahara, et al., 1996, Cancer Res 56:5330-5333). Expression of different xenobiotic enzymes (e.g. cytochrome P-450 and glutathione S-transferase) may also contribute to the intrinsic drug resistance of HCC (Murray, et al., 1993, Cancer 71:36-43). Additional studies explored whether the high intrinsic levels of drug resistance in the HCC lines can be even further augmented by adherence to ECM protein. Overexpression of b1 integrin and its role in the progression of HCC has been reported (Patriarca, et al., 1993, J Pathol 171:5-11). Overexpression of b1-integrin in several HCC lines (including HepG2) protected them from chemotherapeutic drug-induced apoptosis via a MAP kinase-dependent pathway (Zhang, et al., 2002, Cancer 95:896-906). Knockout of a6b1-integrin expression reversed the transformed phenotype of HepG2 cells (Carloni et al., 1998, Gastroenterology. 115:433-442). […] These properties of HCCs may contribute to the marked changes in amount and distribution of ECM components found in the stroma of HCC as compared to normal liver (Jaskiewicz, et al., 1993, Anticancer Res 13:2229-2238). Thus, the combination of increased expression of integrins in HCCs as well as abnormalities in the surrounding ECM may create an environment that both promotes tumor growth and inhibits apoptosis. Therefore, the inventors tested HepG2 and Hep3B for drug sensitivity when assayed on plates coated with BSA as a control, or on FN as described above for U937 cells.

HepG2 = test: 48 h MTT dye reduction assay; type: cell-based; details: Homo sapiens
Excerpt: as §4, §5

SK Hep-1 = test: 48 h MTT dye reduction assay; type: cell-based; details: Homo sapiens, SK-HEP1, read-out: IC50 Values ± SEM (n)
Excerpt: as §4

isolated U937 nuclei = test: DNA fragmentation in isolated nuclei (release of 3H-labeled DNA fragments; agarose gel); type: biochemical, human
Method: as §1
ADF was purified from 2.9 mg of pig heart mitochondrial MDH obtained from Worthington Enzymes, New Jersey. Protein was fractionated by gel filtration on a Tosohaas G2000SWXL 7.8 mm×300 mm HPLC column, and each fraction tested for DNA fragmentation in isolated U937 nuclei (ADF activity) and for MDH enzyme activity. Active fractions were pooled and applied to a reverse phase C4 Brownlee 2.1 mm×220 mm column equilibrated in H2O+0.0075% trifluoroacetic acid pH 6.5, and eluted with a linear gradient to 40% acetonitrile.
In preliminary studies, the inventors observed that supernatants of normal mitochondria derived from cultured cells or freshly isolated liver cells incubated in vitro contained activity that induced internucleosomal DNA cleavage in isolated U937 nuclei. […] To ascertain that the DNA fragmenting activity of MDH was not due to a contaminating nuclease, the inventors purified the commercial enzyme to determine the source of the ADF activity.
Therefore, it is likely that ADF directly or indirectly activates endonucleases present in isolated nuclei.

isolated MCF-7 nuclei = test: DNA fragmentation in isolated nuclei (release of 3H-labeled DNA fragments); type: biochemical, human; details: nuclei from MCF-7 cells (no caspase 3); four h assay
naked DNA = test: DNase assay on naked DNA substrate (rADF alone or extracts of rADF-treated U937 nuclei); type: biochemical, human
ICAD/DFF45 = test: Western blot for ICAD cleavage in rADF-treated nuclei; type: biochemical, human; details: U937 nuclei treated with rADF
[3] = Hep3B (BSA) plate coating, read-out: IC50 Values
[4] = Hep3B (FN) plate coating, read-out: IC50 Values
[5] = read-out: IC50 Values ± SEM (n)
[6] = HepG2, 48 h, HepG2 (BSA) plate coating, read-out: IC50 Values
[7] = HepG2, 48 h, HepG2 (FN) plate coating, read-out: IC50 Values
[8] = HepG2, 48 h, HepG2, read-out: IC50 Values ± SEM (n)

Molecule: COc1cc([C@@H]2c3cc4c(cc3[C@@H](O[C@@H]3O[C@@H]5CO[C@@H](C)O[C@H]5[C@H](O)[C@H]3O)[C@H]3COC(=O)[C@H]23)OCO4)cc(OC)c1O [Etoposide, etoposide]
IC50 (U937 cells [1]; U937, 4 hr, read-out: IC50 Value (minimal concentration to cause 50% DNA fragmentation)): 12 µM
IC50 (U937 cells [1]; U937 on BSA, 4 h DNA fragmentation, read-out: IC50 Values): 4 µM
IC50 (U937 cells [1]; U937 on FN, 4 h DNA fragmentation, read-out: IC50 Values): 15 µM
fold higher concentration to induce 50% DNA fragmentation (U937 cells [1]; cells adhering to FN vs plated on BSA): about 5 fold
IC50 (U9-TR): > 500 µM
IC50 (U9-NAD -): > 500 µM
IC50 (HL-60 neo): 26 µM
IC50 (HL-60 Bcl-2): 380 µM
IC50 (U937 cells [2]; U937 + PMA (10 nM, 3 days)): 510 µM
IC50 (U937 cells [2]; U937): 4 µM
factor of resistance of PMA-treated cells (U937 cells [2]; PMA-treated vs normal U937): 127 fold
IC50 (MES-SA (parental)): 59 µM
IC50 (MES-SA/Dx5 (MDR1 high)): > 500 µM
IC50 (Hep3B; [3]): 210 µM
IC50 (Hep3B; [4]): 840 µM
IC50 (Hep3B; [5]): 95 µM
IC50 (HepG2; HepG2 (BSA) plate coating, read-out: IC50 Values): 35 µM
IC50 (HepG2; HepG2, read-out: IC50 Values ± SEM (n)): 231 µM
IC50 (SK Hep-1): 58 µM

IC50 (Hep3B; [3]): 86 µM
IC50 (Hep3B; [4]): > 400 µM
IC50 (Hep3B; [5]): 80 µM
IC50 (HepG2; [6]): 104 µM
IC50 (HepG2; [7]): > 400 µM
IC50 (HepG2; [8]): 122 µM
Molecule: COc1cccc2c1C(=O)c1c(O)c3c(c(O)c1C2=O)C[C@@](O)(C(=O)CO)C[C@@H]3O[C@H]1C[C@H](N)[C@H](O)[C@H](C)O1 [Dox, doxorubicin]
IC50 (SK Hep-1): 73 µM

IC50 (Hep3B; [3]): 490 µM
IC50 (Hep3B; [4]): > 2 µM
IC50 (Hep3B; [5]): 410 µM
IC50 (HepG2; [6]): 515 µM
IC50 (HepG2; [7]): > 2 µM
IC50 (HepG2; [8]): 620 µM
Molecule: O=c1[nH]cc(F)c(=O)[nH]1 [5-FU, 5-fluorouracil]
IC50 (SK Hep-1): 203 µM

B1: MDH derived from porcine heart mitochondria: commercial preparation of mitochondrial malate dehydrogenase (Worthington Enzymes) (protein, UniProt P00346 25-338, looked up)
Malate dehydrogenase, …: AKVAVLGASGGIGQPLSLLLKNSPLVSRLTLYDIAHTPGVAADLSHIETRATVKGYLGPEQLPDCLKGCDVVVIPAGVPRKPGMTRDDLFNTNATIVATLTAACAQHCPDAMICIISNPVNSTIPITAEVFKKHGVYNPNKIFGVTTLDIVRANAFVAELKGLDPARVSVPVIGGHAGKTIIPLISQCTPKVDFPQDQLSTLTGRIQEAGTEVVKAKAGAGSATLSMAYAGARFVFSLVDAMNGKEGVVECSFVKSQETDCPYFSTPLLLGKKGIEKNLGIGKISPFEEKMIAEAIPELKASIKKGEEFVKNMK
concentrations dose-dependently inducing nuclear DNA fragmentation (isolated U937 nuclei; isolated nuclei): 2 to 10 µg/mL

B2: rADF: recombinant human activator of DNA fragmentation, 9 kDa C-terminal fragment of mitochondrial MDH, SEQ ID NO:7 (protein, listed as Homo sapiens)
chain: KAKAGAGSATLSMAYAGARFVFSLVDAMNGKEGVVECSFVKSQETECTYFSTPLLLGKKGIEKNLGIGKVSSFEEKMISDAIPELKASIKKGEDFVKTLK
internucleosomal DNA fragmentation (isolated U937 nuclei; agarose gel, 4 h): induced internucleosomal DNA fragmentation
activation of nuclear DNA fragmentation (isolated U937 nuclei; nuclei from U937 cells, four h assay): dose-dependent activation
activation of nuclear DNA fragmentation (isolated MCF-7 nuclei): dose-dependent activation
DNase activity on naked DNA of extracts from treated nuclei (naked DNA; U937 nuclei incubated with rADF 20 h): digested naked DNA
digestion of naked DNA by rADF itself (naked DNA; rADF without nuclei): did not digest naked DNA; also recorded: little or no activity
ICAD/DFF45 cleavage (ICAD/DFF45): not cleaved
DNA fragmentation activity at the same concentrations (U937 cells [1]; 2.25-9 nM, 4 h assay): little activity
